# Key:
# [1] = system: 5637 (Bladder Carcinoma); test: Bliss excess, mean over the matrix (fraction); higher = more synergy
# Summary of the method: (§1)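 Cell lines grown in DMEM/F12 or RPMI with 10% FBS were plated in 1536-well plates and held 24 hours at 37°C, 5% CO2 before 72 hours of exposure to two-drug dose matrices, with DMSO typically at 0.2%. CellTiter-Glo 2.0 luminescence gave viability, which was converted to inhibition. Vehicle wells were set to 0 and blank wells to 1. Combination Emax is the second-highest inhibition in the matrix, and Bliss excess is the observed combination effect minus the expected EA + EB − EA·EB, where EA and EB are the single-agent effects.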
# [2] = system: EW-16 (Ewing's Sarcoma); test: as above
# Summary of the method: as §1
# [3] = system: GA-10 (Burkitt's Lymphoma); test: as above
# Summary of the method: as §1
# [4] = system: JIMT-1 (Breast Carcinoma); test: as above
# Summary of the method: as §1
# [5] = system: KYSE-140 (Esophageal Squamous Cell Carcinoma); test: as above
# Summary of the method: as §1
# [6] = system: 22RV1 (Prostate Carcinoma); test: combination Emax (second highest fraction inhibited in the dose matrix, 72 h); higher = more inhibition; extreme values may be limits of the assay
# Summary of the method: as §1
# [7] = system: 5637 (Bladder Carcinoma); test: as above
# Summary of the method: as §1
# [8] = system: A204 (Rhabdomyosarcoma); test: as above
# Summary of the method: as §1
# [9] = system: ESO26 (Esophageal Adenocarcinoma); test: as above
# Summary of the method: as §1
# [10] = system: EW-7 (Ewing's Sarcoma); test: as above
# Summary of the method: as §1
# [11] = system: G-402 (Other Solid Carcinomas); test: as above
# Summary of the method: as §1
# [12] = system: HCC70 (Breast Carcinoma); test: as above
# Summary of the method: as §1
# [13] = system: HT55 (Colorectal Carcinoma); test: as above
# Summary of the method: as §1
# [14] = system: JHH-2 (Hepatocellular Carcinoma); test: as above
# Summary of the method: as §1
# [15] = system: JHU-022 (Oral Cavity Carcinoma); test: as above
# Summary of the method: as §1
# [16] = system: LS-411N (Colorectal Carcinoma); test: as above
# Summary of the method: as §1
# [17] = system: MDA-MB-436 (Breast Carcinoma); test: as above
# Summary of the method: as §1
# [18] = system: NB13 (Neuroblastoma); test: as above
# Summary of the method: as §1
# [19] = system: OACp4C (Esophageal Adenocarcinoma); test: as above
# Summary of the method: as §1
# [20] = system: huH-1 (Hepatocellular Carcinoma); test: as above
# Summary of the method: as §1
# 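Wherever Bliss excess, mean over the matrix is given: after 72 h of two-drug dosing.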
SMILES,Bliss excess [1],Bliss excess [2],Bliss excess [3],Bliss excess [4],Bliss excess [5],combination Emax [6],combination Emax [7],combination Emax [8],combination Emax [9],combination Emax [10],combination Emax [11],combination Emax [12],combination Emax [13],combination Emax [14],combination Emax [15],combination Emax [16],combination Emax [17],combination Emax [18],combination Emax [19],combination Emax [20]
"COc1nnc2ccc(N3CCC(c4ccc(OCCN5CCN(C)C(=O)[C@H]5C)cc4)CC3)nn12 [AZD5153] + C[C@@H]1COCCN1C2=NC(=NC(=C2)C3(CC3)[S@](=N)(=O)C)C4=C5C=CNC5=NC=C4 [AZD6738] (first compound max 1 µM, 7x7, partner max 10 µM)",-0.0001,0.0667,-0.0177,0.0465,-0.0968,0.645,0.823,0.573,0.84,0.961,0.941,0.659,0.748,0.711,0.563,0.947,0.332,0.917,0.856,0.69
"COc1nnc2ccc(N3CCC(c4ccc(OCCN5CCN(C)C(=O)[C@H]5C)cc4)CC3)nn12 [AZD5153] + Cn1cnc2c(F)c(Nc3ccc(Br)cc3Cl)c(C(=O)NOCCO)cc21 [Selumetinib] (first compound max 1 µM, 7x7, partner max 10 µM)",0.0132,-0.0456,-0.0813,-0.0082,-0.028,0.555,0.81,0.484,0.709,0.357,0.797,0.584,0.857,0.427,0.508,0.997,0.217,0.565,0.945,0.438
"COc1cccc(OCCCN)c1-c1cc(Nc2cnc(C#N)cn2)n[nH]1 [Prexasertib] + O=C(c1cc(Cc2n[nH]c(=O)c3ccccc23)ccc1F)N1CCN(C(=O)C2CC2)CC1 [Olaparib] (first compound max 1 µM, 7x7, partner max 10 µM)",-0.0729,0.0036,-0.0649,-0.0182,-0.152,0.516,0.852,0.584,0.56,0.955,0.524,0.939,0.65,0.9,0.637,0.498,0.509,0.881,0.642,0.778
"CCN(CCO)CCCOc1ccc2c(Nc3cc(CC(=O)Nc4cccc(F)c4)[nH]n3)ncnc2c1 [AZD2811] + C[C@@H]1COCCN1C2=NC(=NC(=C2)C3(CC3)[S@](=N)(=O)C)C4=C5C=CNC5=NC=C4 [AZD6738] (first compound max 1 µM, 7x7, partner max 10 µM)",-0.0712,-0.018,-0.057,-0.0203,0.0008,0.566,0.827,0.387,0.0804,0.902,0.606,0.797,0.515,0.62,0.535,0.819,0.311,0.941,0.733,0.712
"CC(=O)c1c(C)c2cnc(Nc3ccc(N4CCNCC4)cn3)nc2n(C2CCCC2)c1=O [Palbociclib] + Cn1cnc2c(F)c(Nc3ccc(Br)cc3Cl)c(C(=O)NOCCO)cc21 [Selumetinib] (first compound max 10 µM, 7x7, partner max 10 µM)",-0.0288,-0.0095,-0.0193,-0.0436,-0.0387,0.463,0.345,0.399,0.299,0.669,0.462,0.269,0.755,0.463,0.54,0.715,0.224,0.333,0.557,0.167
"CS(=O)(=O)CCNCc1ccc(-c2ccc3ncnc(Nc4ccc(OCc5cccc(F)c5)c(Cl)c4)c3c2)o1 [Lapatinib] + C[C@@H](Oc1cc(-c2cnn(C3CCNCC3)c2)cnc1N)c1c(Cl)ccc(F)c1Cl [Crizotinib] (first compound max 10 µM, 7x7, partner max 10 µM)",-0.0285,-0.0562,-0.0218,0.0444,-0.0083,0.706,1,0.498,0.854,0.956,0.879,0.685,0.931,0.882,0.943,0.584,0.248,0.949,1,0.671
"COc1nnc2ccc(N3CCC(c4ccc(OCCN5CCN(C)C(=O)[C@H]5C)cc4)CC3)nn12 [AZD5153] + CC1(C)CCC(CN2CCN(c3ccc(C(=O)NS(=O)(=O)c4ccc(NCC5CCOCC5)c([N+](=O)[O-])c4)c(Oc4cnc5[nH]ccc5c4)c3)CC2)=C(c2ccc(Cl)cc2)C1 [Venetoclax] (first compound max 1 µM, 7x7, partner max 1 µM)",-0.0407,-0.0593,-0.0497,-0.0629,-0.0597,0.486,0.477,0.416,0.648,0.334,0.769,0.309,0.513,0.357,0.417,0.728,0.227,0.474,0.545,0.401
"NC1(C(=O)N[C@@H](CCO)c2ccc(Cl)cc2)CCN(c2ncnc3[nH]ccc23)CC1 [Capivasertib] + COc1nnc2ccc(N3CCC(c4ccc(OCCN5CCN(C)C(=O)[C@H]5C)cc4)CC3)nn12 [AZD5153] (first compound max 10 µM, 7x7, partner max 1 µM)",0.0035,0.0283,-0.0148,0.0698,0.0298,0.649,0.627,0.517,0.753,0.828,0.723,0.876,0.572,0.605,0.486,0.937,0.0453,0.775,0.905,0.358
"Cc1c2c(nn1C)CSCc1cc(n(C)n1)CSc1cc(c3ccccc3c1)OCCCc1c(C(=O)O)n(C)c3c-2c(Cl)ccc13 [AZD5991] + Cn1cnc2c(F)c(Nc3ccc(Br)cc3Cl)c(C(=O)NOCCO)cc21 [Selumetinib] (first compound max 1 µM, 7x7, partner max 3 µM)",0.0174,0.046,0.0086,-0.014,-0.015,0.498,0.37,0.459,0.274,0.271,0.955,0.994,0.692,0.342,0.398,0.826,0.152,0.263,0.835,0.152
"CC1(C)CCC(CN2CCN(c3ccc(C(=O)NS(=O)(=O)c4ccc(NCC5CCOCC5)c([N+](=O)[O-])c4)c(Oc4cnc5[nH]ccc5c4)c3)CC2)=C(c2ccc(Cl)cc2)C1 [Venetoclax] + C1CN(CCC1(C(=O)N[C@@H](CCO)C2=CC=C(C=C2)Cl)N)C3=NC=NC4=C3C=CN4 [Capivasertib] (first compound max 1 µM, 7x7, partner max 3 µM)",-0.0513,-0.0498,-0.0614,-0.0836,-0.018,0.484,0.168,0.335,0.311,0.962,0.425,0.686,0.363,0.625,0.359,0.305,0.163,0.465,0.634,0.2
"NC1(C(=O)N[C@@H](CCO)c2ccc(Cl)cc2)CCN(c2ncnc3[nH]ccc23)CC1 [Capivasertib] + C[C@@H]1COCCN1C2=NC(=NC(=C2)C3(CC3)[S@](=N)(=O)C)C4=C5C=CNC5=NC=C4 [AZD6738] (first compound max 10 µM, 7x7, partner max 10 µM)",-0.0846,0.0116,-0.0303,-0.0321,-0.0846,0.76,0.564,0.467,0.599,1,0.771,0.817,0.545,0.769,0.631,0.751,0.372,0.896,0.979,0.692
"COc1nnc2ccc(N3CCC(c4ccc(OCCN5CCN(C)C(=O)[C@H]5C)cc4)CC3)nn12 [AZD5153] + CCN(CCO)CCCOc1ccc2c(Nc3cc(CC(=O)Nc4cccc(F)c4)[nH]n3)ncnc2c1 [AZD2811] (first compound max 1 µM, 7x7, partner max 1 µM)",-0.107,0.0068,-0.122,-0.0113,-0.0087,0.522,0.68,0.466,0.752,0.444,0.825,0.459,0.619,0.416,0.452,0.739,0.287,0.65,0.683,0.527
"CC1(C)CCC(CN2CCN(c3ccc(C(=O)NS(=O)(=O)c4ccc(NCC5CCOCC5)c([N+](=O)[O-])c4)c(Oc4cnc5[nH]ccc5c4)c3)CC2)=C(c2ccc(Cl)cc2)C1 [Venetoclax] + CN(C)CCCOc1ccc(-c2ccc3ncc4c(c3c2)n(C2CCOCC2)c(=O)n4C)cn1 [AZD0156] (first compound max 1 µM, 7x7, partner max 1 µM)",-0.0273,-0.0659,-0.0585,-0.0819,0.0177,0.423,0.15,0.31,0.0967,0.944,0.359,0.395,0.173,0.334,0.167,0.118,0.168,0.468,0.224,0.171
